Assay results from patent publication US8394362B2, “Gem difluorinated C-glycopeptides, their preparation and their use for the preservation of biological materials and/or in cryosugery” (priority 2004, dated 2013).
Where two headings read alike, the source gives them in different places.

Experiments:
HEK 293 cells = experiment: Preservation of HEK 293 kidney cells at low temperatures (Trypan blue cell count); type: cell-based
Protocol: The cells were then diluted to 75,000 cells/mL. Subsequently they were distributed over 6 plates with six 3 mL-wells per plate. This concentration is a good compromise between a concentration sufficiently low to prevent cell death by autocytotoxicity and sufficiently high to permit cell sampling and counting without any pre-concentration likely to reduce their survival. Each plate had two control wells not containing product 15, two wells with concentrations of product 15 adjusted to 0.01 mg/mL, and two others with 0.1 mg/mL. Each plate was then incubated at the following temperatures: 4° C., 2° C., 0° C., −2° C., −4° C., and −20° C. Each well was subsequently sampled at the following incubation times: 2, 8, and 22 hours.

erythrocytes = experiment: Preservation of erythrocytes: haemolysis at different temperatures; type: cell-based, human
Protocol: The death of erythrocytes can be ascertained by rupture of the plasma membrane. This phenomenon is called haemolysis. Detection of haemolysis is the chief tool used in this experiment to determine the effect of product 15 at different temperatures on the preservation of erythrocytes. Blood sampling→Aliquots→Addition of AAGP (compound 15)→Various temperatures→Observation of haemolysis Product 15 was tested at concentrations of 0 mg/mL, 0.1 mg/mL, 1.0 mg/mL at temperatures of 3, 0, −3, −5, −10, −15, −23, −78° C. From a sample of human blood in a borosilicate heparinized tube, microtubes of 275 μL were filled to full capacity. One third of the microtubes were completed with 2.75 μL of product 15 (10 mg/mL in H2O), and one third of the microtubes were completed with 27.5 μL of product 15 (10 mg/mL in H2O). The blood was divided among the tubes to full capacity to prevent air contact as much as possible. […] The microtubes were frozen on a microtube support and the experiment was conducted using a slow-freeze apparatus at −78° C., whilst thawing was always conducted at room temperature on the microtube rack. After thawing, the microtubes were delicately homogenized by inverting a few times and a sample of erythrocytes was taken. […] Co is the initial Ery count • Cexp is the experimental Ery count Materials

blood platelets = experiment: Preservation of blood platelets: platelet clustering over 21 days; type: cell-based
Protocol: The purpose is to test product 15 on the preservation of blood platelets to improve current protocols which only allow their preservation for 5 days. The test was conducted at four different temperatures 22° C., 15° C., 4° C. and finally 0° C. Platelet follow-up lasted 21 days to examine platelet clustering. Clustering is one of the first and most definitive indicators of platelet degradation. During their degradation, the platelets become active, lose their morphology, become fibrous, form clusters and finally degenerate. A platelet count is made but the result is rather more based on the extent of clustering.

H9c2(2-1) cells [1] = type: cell-based, rat
Protocol: The test was conducted on rat heart myoblasts to consider application of these compounds for the preservation of organs such as the heart for subsequent transplant.
Another test was conducted on myoblasts at temperatures of 3° C. and −3° C. The purpose of the experiment this time was to increase the concentrations of glycoproteins 15 and 30 equimolar fashion (the molecular weight of the dimer being 2× greater than that of the monomer). The increase in concentration was 2.5 mg/mL for monomer 15 and 5 mg/mL for dimer 30. The temperatures were chosen over a range frequently used for the preservation of cells and tissues. The idea being subsequently to continue this experiment directly on tissues.

[2] = tested on: CCD-27Sk fetal fibroblast skin cells
Excerpt: […] Materials

[3] = tested on: adult primary skin fibroblasts; experiment: Protection of adult primary skin fibroblasts in culture medium; type: cell-based; details: 15 mg/mL, after six days, culture media
Protocol: This test was extended to adult primary fibroblasts.
For adult fibroblasts, a culture medium (rich in factors) is used,
The concentration of product 15 is 15 mg/mL.

embryonic fibroblasts = details: 15 mg/mL; 1 mM H2O2; 37° C.; after 10 hours; serum-free medium with 0.5 mM EDTA
H9c2(2-1) cells [4] = type: cell-based, rat; remark: listed apart in the source
[5] = 0.1 mg/mL, 40 min, −78° C. with slow cooling
[6] = 0.1 mg/mL, 2 h, 3, 0, −3, −5 and −10° C.
[7] = 0.1 mg/mL, 4 h, 3, 0, −3, −5 and −10° C.
[8] = 0.1 mg/mL, 9 h, 3, 0, −3, −5 and −10° C.
[9] = 0.1 mg/mL, 24 h, 3, 0, −3, −5 and −10° C.
[10] = 1.0 mg/mL, 40 min, −78° C. with slow cooling
[11] = 1.0 mg/mL, 2 h, 3, 0, −3, −5 and −10° C.
[12] = 1.0 mg/mL, 4 h, 3, 0, −3, −5 and −10° C.
[13] = 1.0 mg/mL, 9 h, 3, 0, −3, −5 and −10° C.
[14] = 1.0 mg/mL, 24 h, 3, 0, −3, −5 and −10° C.

## C[C@H](NC(=O)[C@H](C)NC(=O)[C@@H](N)CCCCNC(=O)C(F)(F)C1(O)O[C@H](CO)[C@H](O)[C@H](O)[C@H]1O)C(=O)O (stereo partly drawn) [product 15]
HEK 293 cells; 0.01 mg/mL
  cell survival compared with negative control: does not appear to improve cell survival
HEK 293 cells; 0.10 mg/mL, five of six temperatures (4, 2, 0, −2, −4, −20° C.), 2, 8, 22 h
  cell survival rate compared with negative control: led to the best cell survival rates even if the improvement remained low
HEK 293 cells; −20° C., after two hours
  cell appearance and Trypan blue uptake after thawing: maintained the appearance of spherical retractile cells and did not absorb Trypan blue
HEK 293 cells; −20° C., eight hours' incubation, both concentrations (0.01 and 0.1 mg/mL)
  cells remaining after re-incubation: complete disappearance of all cells
erythrocytes; [5]
  % Haemolysis: 36%
  % erythrocytes: 64%
erythrocytes; [6]
  % Ery: 100%
  % Haemolysis: 0%
erythrocytes; 0.1 mg/mL, 2 h, −15° C.
  % Ery: 73%
  % Haemolysis: 27%
  Number of erythrocytes: 90
erythrocytes; [7]
  % Ery: 100%
  % Haemolysis: 0%
erythrocytes; 0.1 mg/mL, 4 h, −15° C.
  % Ery: 0%
  % Haemolysis: 100%
  Number of erythrocytes: 0
erythrocytes; [8]
  % Ery: 100%
  % Haemolysis: 0%
erythrocytes; 0.1 mg/mL, 9 h, −15° C.
  % Ery: 0%
  % Haemolysis: 100%
  Number of erythrocytes: 0
erythrocytes; [9]
  % Ery: 100%
  % Haemolysis: 0%
erythrocytes; [10]
  % Haemolysis: 97%
  % erythrocytes: 3%
erythrocytes; [11]
  % Ery: 100%
  % Haemolysis: 0%
erythrocytes; 1.0 mg/mL, 2 h, −15° C.
  % Ery: 98%
  % Haemolysis: 2%
  Number of erythrocytes: 120
erythrocytes; [12]
  % Ery: 100%
  % Haemolysis: 0%
erythrocytes; 1.0 mg/mL, 4 h, −15° C.
  % Ery: 100%
  % Haemolysis: 0%
  Number of erythrocytes: 133
erythrocytes; [13]
  % Ery: 100%
  % Haemolysis: 0%
erythrocytes; 1.0 mg/mL, 9 h, −15° C.
  % Ery: 98%
  % Haemolysis: 2%
  Number of erythrocytes: 121
erythrocytes; [14]
  % Ery: 100%
  % Haemolysis: 0%
erythrocytes; temperature below −15° C., 1.0 mg/mL
  protection of erythrocytes: no protection is observed
erythrocytes; temperature range of 2 to −10° C., 0 to 24 hours, with or without product
  haemolysis: no haemolysis
erythrocytes; −15° C.
  protection of erythrocytes: really protects the erythrocytes
erythrocytes; −15° C., 4 and 9 hours, 1.0 mg/mL
  protection of erythrocytes: complete protection
erythrocytes; −15° C., after two hours, 0.1 mg/mL
  protection of erythrocytes: partly protects the erythrocytes
erythrocytes; −15° C., after two hours, 1.0 mg/mL
  protection of erythrocytes: completely
erythrocytes; −78° C. slow cooling, freezing point, after 40 minutes
  relation of % haemolysis to concentration: direct correlation is observed between % haemolysis and concentrations of product 15
Blood platelets; 0° C., with or without glycoprotein
  platelet clustering: no clustering is seen
Blood platelets; 4° C., irrespective of concentrations
  platelet clustering: almost no clustering is observed
Blood platelets; 15° C., over time
  platelet clustering compared with control: a greater increase in clustering is observed in the control than in the samples containing the compound
Blood platelets; 22° C., 1 mg/mL and 4 mg/mL
  time up to which samples do not show any platelet clusters: up to 7 days
Blood platelets; 22° C., 4 mg/mL (most concentrated samples)
  platelet clustering: the least clustering
Blood platelets; 22° C., 13, 17 and 21 days
  platelet clustering compared with control: true inhibition of platelet clustering
H9c2(2-1) cells [1]; 3° C. (FIG. 42 as printed), after 8 hours, monomer […], dimer 5 mg/mL
  survival rate relative to control (control 19%): more than twice as high
H9c2(2-1) cells [1]; after 16 hours, FIGS. 41 and 42, monomer […], dimer 5 mg/mL
  cells preserved: approximately 90%
H9c2(2-1) cells [1]; after 24 hours, FIGS. 41 and 42, monomer […], dimer 5 mg/mL
  myoblasts still living: ~65%
H9c2(2-1) cells [1]; −3° C. (FIG. 43), 1 mg/mL versus 2.5 / 5 mg/mL
  efficacy versus concentration: greater efficacy at higher concentrations
[2]; 5 mg/mL (8.6 mM), 22, 3, −3, −20° C.
  preservation of skin fibroblasts, overall: better preservation in the presence of product 15 at all temperatures except at −20 °C
[2]; 5 mg/mL, 22° C., 3° C., −3° C. (FIGS. 48 to 50)
  survival rates over time compared with control: much better survival rates
[2]; 5 mg/mL, 8 hours (FIG. 44), entire temperature range
  cell preservation with or without product: no difference is found
[2]; 5 mg/mL, 20 hours (FIG. 46)
  cell survival rate compared with control: better cell survival rate with monomer 15 than with the control
[2]; 5 mg/mL, 20 hours (FIG. 46), −3° C.
  survival rate: 50%
[2]; 5 mg/mL, after 12 hours, 22° C. and −3° C.
  cell preservation compared with control: better preservation
[2]; 5 mg/mL, after 30 hours (FIG. 47), especially at 3° C.
  cell survival compared with control: distinct improvement
[2]; 5 mg/mL, after 30 hours (FIG. 47), −3° C.
  survival: 70%
[2]; 5 mg/mL, −20° C.
  cell fate on freezing: death of the cells after thawing
[2]; 10 mg/mL, 15° C., after four days, low-serum media
  survival: 46%
[2]; 10 mg/mL, 37° C., after four days, low-serum media
  cells preserved: approximately 100%
[2]; 10 mg/mL, Day 1 (FIG. 55)
  cell morphology: preserve a spherical shape and maintain their integrity
[2]; 3 and −3° C., 20 and 34 hours, up to 15 mg/mL
  cell survival rate versus concentration: improves cell survival rate
[2]; 3 and −3° C., concentrations up to 15 mg/mL, after 34 hours
  protective effect on cells: ~100%
[3]; 3° C.
  survival: 100%
[3]; 15° C.
  cells protected: 100%
Embryonic fibroblasts
  survival: approximately 80%
H9c2(2-1) cells [4]; 1 mg/mL, −3° C. (FIG. 40)
  number of living cells over incubation time: slow decrease over incubation time in the number of living cells
H9c2(2-1) cells [4]; 0.1, 0.5 and 1 mg/mL
  dependence of cell survival rate on concentration: better results at 1 mg/mL than at 0.1 and 0.5 mg/mL
H9c2(2-1) cells [4]; main experiment, 1 mg/mL, 4° C., up to 45 hours
  survival percentage over time: better survival percentage over the entire duration of the experiment
H9c2(2-1) cells [4]; main experiment, 1 mg/mL, 22° C., after 45 hours
  survival: 65%
H9c2(2-1) cells [4]; main experiment, 1 mg/mL, after 16 hours, 4° C.
  protective effect, monomer versus dimer: gives the best results
H9c2(2-1) cells [4]; main experiment, 1 mg/mL, up to 8 hours, 22, 4, −3 and −10° C.
  cell survival compared with control: no significant difference
H9c2(2-1) cells [4]; main experiment, 1 mg/mL, −10° C.
  survival compared with control: slight improvement
H9c2(2-1) cells [4]; preliminary experiment, 2° C. as printed (method −2° C.), 20 hours, 0.1 mg/mL
  survival percentage: identical to the control
